Read-outs that look alike come from different tables or passages of the source.
Assays:
[1] = target: T1, human GIP receptor (hGIPR) (Homo sapiens, UniProt P48546); test: [125I]-GIP binding, SPA with membranes of CHO cells expressing hGIPR
T1 construct: expressed in transfected cells; crude membranes
T1 sequence (P48546 22-466): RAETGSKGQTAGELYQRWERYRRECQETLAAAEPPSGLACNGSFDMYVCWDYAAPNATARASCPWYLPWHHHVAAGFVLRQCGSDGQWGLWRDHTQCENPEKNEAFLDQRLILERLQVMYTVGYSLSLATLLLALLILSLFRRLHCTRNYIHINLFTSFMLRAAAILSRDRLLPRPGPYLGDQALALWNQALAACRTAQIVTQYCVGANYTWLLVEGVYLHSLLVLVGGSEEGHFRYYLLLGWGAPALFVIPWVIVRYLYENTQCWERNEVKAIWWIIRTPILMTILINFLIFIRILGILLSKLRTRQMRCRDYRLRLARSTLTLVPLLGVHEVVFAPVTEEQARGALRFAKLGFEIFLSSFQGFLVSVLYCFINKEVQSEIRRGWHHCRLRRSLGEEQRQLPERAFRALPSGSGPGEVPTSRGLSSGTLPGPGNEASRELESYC

hGCGR = target: T2, hGCGR (Homo sapiens, UniProt P47871); test: Functional cAMP formation (HTRF) in HEK-293 clonal cells expressing hGCGR, 0.1% bovine casein, without or with 1.0% human serum albumin; format: cell-based
T2 construct: expressed in transfected cells
T2 sequence (P47871 26-477): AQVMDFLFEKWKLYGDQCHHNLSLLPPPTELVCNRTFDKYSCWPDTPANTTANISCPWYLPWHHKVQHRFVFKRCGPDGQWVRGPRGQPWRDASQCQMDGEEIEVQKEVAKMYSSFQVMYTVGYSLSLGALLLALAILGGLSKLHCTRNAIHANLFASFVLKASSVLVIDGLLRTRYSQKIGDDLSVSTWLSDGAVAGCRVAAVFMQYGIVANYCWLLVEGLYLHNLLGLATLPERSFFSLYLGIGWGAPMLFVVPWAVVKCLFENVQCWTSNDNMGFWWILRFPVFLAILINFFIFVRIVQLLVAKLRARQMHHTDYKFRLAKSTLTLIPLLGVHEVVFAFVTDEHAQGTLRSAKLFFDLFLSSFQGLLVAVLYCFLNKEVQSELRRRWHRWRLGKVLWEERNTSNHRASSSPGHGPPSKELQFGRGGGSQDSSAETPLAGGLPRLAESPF
Summary of the method: (§1)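 Cells were stimulated with peptide for 30 min at 37° C, then intracellular cAMP was measured by competitive HTRF (665/620 nm ratio) and converted to nM using a cAMP standard curve. Relative EC50 and Emax came from four-parameter logistic fits of percent maximal response against peptide concentration.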

hGIPR = target: T3, hGIPR (Homo sapiens, UniProt P48546); test: Functional cAMP formation (HTRF) in HEK-293 clonal cells expressing hGIPR, 0.1% bovine casein, without or with 1.0% human serum albumin; format: cell-based
T3 construct: expressed in transfected cells
T3 sequence (P48546 22-466): T1 sequence (P48546 22-466)
Summary of the method: as §1

[2] = target: T4, human Gcg receptor (hGcgR) (Homo sapiens, UniProt P47871); test: [125I]-Glucagon binding, SPA with membranes of HEK293 cells expressing hGcgR
T4 construct: expressed in transfected cells; crude membranes
T4 sequence (P47871 26-477): as above

hGLP-1R = hGLP-1R (Homo sapiens, UniProt P43220); test: Functional cAMP formation (HTRF) in HEK-293 clonal cells expressing hGLP-1R, 0.1% bovine casein, without or with 1.0% human serum albumin; format: cell-based; set-up: expressed in transfected cells; conditions: for EC50: geometric mean
Sequence of hGLP-1R (P43220 24-463): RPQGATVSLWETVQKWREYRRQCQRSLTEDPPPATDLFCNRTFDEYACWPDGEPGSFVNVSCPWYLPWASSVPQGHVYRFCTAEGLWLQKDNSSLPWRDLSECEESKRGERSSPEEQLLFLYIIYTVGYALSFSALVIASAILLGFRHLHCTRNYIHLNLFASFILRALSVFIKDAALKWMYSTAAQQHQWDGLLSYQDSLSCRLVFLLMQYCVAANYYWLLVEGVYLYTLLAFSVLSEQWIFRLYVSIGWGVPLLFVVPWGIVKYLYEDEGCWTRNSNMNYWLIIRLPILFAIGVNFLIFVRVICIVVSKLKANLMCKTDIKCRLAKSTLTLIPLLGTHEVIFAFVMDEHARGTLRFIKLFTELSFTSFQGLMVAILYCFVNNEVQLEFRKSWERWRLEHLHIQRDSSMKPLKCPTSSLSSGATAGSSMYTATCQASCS
Summary of the method: as §1

[3] = target: T5, human GLP-1 receptor (hGLP-1R) (Homo sapiens, UniProt P43220); test: [125I]-GLP-1 binding, SPA with membranes of HEK293 cells expressing hGLP-1R
T5 construct: expressed in transfected cells; crude membranes
T5 sequence (P43220 24-463): as above

[4] = HEK293, percent of maximal response to GLP-1(7-36)NH2, 37° C., 0.1% bovine casein, arithmetic mean, read-out: hGLP-1R Emax, % ± SEM
[5] = cAMP, incubated at 37° C., 0.1% bovine casein (no human serum albumin), geometric mean, read-out: hGCGR EC50, nM (SEM, n)
[6] = human GLP-1R, geometric mean (SEM, n), read-out: Binding Affinity Ki, nM (SEM, n) hGLP-1R
[7] = cAMP, incubated at 37° C., 0.1% bovine casein (no human serum albumin), geometric mean, read-out: hGIPR EC50, nM (SEM, n)
[8] = human GcgR, geometric mean (SEM, n), read-out: Binding Affinity Ki, nM (SEM, n) hGCGR

CC[C@H](C)[C@H](NC(=O)[C@H](CC(C)C)NC(=O)[C@](C)(Cc1ccc(O)cc1)NC(=O)[C@H](CCCCNC(=O)COCCOCCNC(=O)COCCOCCNC(=O)CC[C@H](NC(=O)CCCCCCCCCOc1ccc(C(=O)O)cc1)C(=O)O)NC(=O)[C@@H](NC(=O)[C@H](Cc1ccccc1)NC(=O)[C@H](CCC(=O)O)NC(=O)C(C)(C)NC(=O)[C@H](CCC(N)=O)NC(=O)[C@H](C)NC(=O)[C@H](CCCCNC(=O)COCCOCCNC(=O)COCCOCCNC(=O)CC[C@H](NC(=O)CCCCCCCCCOc1ccc(C(=O)O)cc1)C(=O)O)NC(=O)[C@H](CCCN)NC(=O)[C@H](CC(=O)O)NC(=O)[C@H](CC(C)C)NC(=O)[C@](C)(CC(C)C)NC(=O)[C@@H](NC(=O)[C@H](CO)NC(=O)[C@H](Cc1ccncc1)NC(=O)[C@H](CC(=O)O)NC(=O)[C@H](CO)NC(=O)[C@@H](NC(=O)[C@](C)(Cc1ccccc1F)NC(=O)[C@@H](NC(=O)CNC(=O)[C@H](CCC(=O)O)NC(=O)C(C)(C)NC(=O)[C@@H](N)Cc1ccc(O)cc1)[C@@H](C)O)[C@@H](C)O)[C@@H](C)CC)[C@@H](C)CC)C(=O)N[C@@H](CCC(=O)O)C(=O)NCC(=O)NCC(=O)N1CCC[C@H]1C(=O)N[C@@H](CO)C(=O)N[C@@H](CO)C(=O)NCC(=O)N[C@@H](C)C(=O)N1CCC[C@H]1C(=O)N1CCC[C@H]1C(=O)N1CCC[C@H]1C(=O)N[C@@H](CO)C(N)=O [Example 128]
Ki [1]: 0.0314 nM
EC50 (hGCGR; hGCGR EC50, nM (SEM, n), cAMP, incubated at 37° C., 0.1% bovine casein (no human serum albumin), geometric mean): > 9950 nM
Emax (hGIPR; HEK293, read-out: hGIPR Emax, % ± SEM, percent of maximal response to GIP(1-42)NH2, 37° C., 0.1% bovine casein, arithmetic mean): 98.5 ± 2.47%
EC50 (hGIPR; hGIPR EC50, nM (SEM, n), cAMP, incubated at 37° C., 0.1% bovine casein (no human serum albumin), geometric mean): 0.0232 nM
Ki [2]: > 955 nM

CC[C@H](C)[C@H](NC(=O)[C@H](CC(C)C)NC(=O)[C@](C)(Cc1ccc(O)cc1)NC(=O)[C@@H](CCC(=O)O)NC(=O)[C@@H](NC(=O)[C@H](Cc1ccccc1)NC(=O)[C@H](CCC(=O)O)NC(=O)C(C)(C)NC(=O)[C@H](CCC(N)=O)NC(=O)[C@H](C)NC(=O)[C@H](CCCCNC(=O)COCCOCCNC(=O)COCCOCCNC(=O)COCCOCCNC(=O)CC[C@H](NC(=O)CCCCCCCCCCCCC(=O)O)C(=O)O)NC(=O)[C@H](CCCN)NC(=O)[C@H](CC(=O)O)NC(=O)[C@H](CC(C)C)NC(=O)[C@](C)(CC(C)C)NC(=O)[C@@H](NC(=O)[C@H](CO)NC(=O)[C@H](Cc1ccncc1)NC(=O)[C@H](CC(=O)O)NC(=O)[C@H](CO)NC(=O)[C@@H](NC(=O)[C@](C)(Cc1ccccc1F)NC(=O)[C@@H](NC(=O)CNC(=O)[C@H](CCC(=O)O)NC(=O)C(C)(C)NC(=O)[C@@H](N)Cc1ccc(O)cc1)[C@@H](C)O)[C@@H](C)O)[C@@H](C)CC)[C@@H](C)CC)C(=O)N[C@@H](CCC(=O)O)C(=O)NCC(=O)NCC(=O)N[C@@H](CCCCNC(=O)COCCOCCNC(=O)COCCOCCNC(=O)COCCOCCNC(=O)CC[C@H](NC(=O)CCCCCCCCCCCCC(=O)O)C(=O)O)C(=O)N[C@@H](CO)C(=O)N[C@@H](CO)C(=O)NCC(=O)N[C@@H](C)C(=O)N1CCC[C@H]1C(=O)N1CCC[C@H]1C(=O)N1CCC[C@H]1C(=O)N[C@@H](CO)C(N)=O [Example 30]
EC50 (hGLP-1R; 0.1% bovine casein and 1.0% human serum albumin, 37° C., read-out: hGLP-1R EC50, nM (SEM, n)): 18.3 nM
Emax (hGLP-1R; HEK293, 0.1% bovine casein and 1.0% human serum albumin, 37° C., percent of maximal response to GLP-1(7-36)NH2, read-out: hGLP-1R Emax, % ± SEM): 96.5 ± 0.219%
Emax (hGLP-1R; [4]): 97.8 ± 10.7%
EC50 (hGCGR; 0.1% bovine casein and 1.0% human serum albumin, 37° C., geometric mean, read-out: hGCGR EC50, nM (SEM, n)): > 9950 nM
EC50 (hGCGR; [5]): > 9950 nM
Ki [3, 6]: 2.66 nM
EC50 (hGIPR; 0.1% bovine casein and 1.0% human serum albumin, 37° C., geometric mean, read-out: hGIPR EC50, nM (SEM, n)): 0.337 nM
EC50 (hGIPR; [7]): 0.0175 nM
Ki [2, 8]: > 966 nM

CCCCCCCCCCCC(=O)N[C@@H](CCC(=O)NCCOCCOCC(=O)NCCOCCOCC(=O)NCCCC[C@H](NC(=O)[C@H](CCCN)NC(=O)[C@H](CC(=O)O)NC(=O)[C@H](CC(C)C)NC(=O)[C@](C)(CC(C)C)NC(=O)[C@@H](NC(=O)[C@H](CO)NC(=O)[C@H](Cc1ccncc1)NC(=O)[C@H](CC(=O)O)NC(=O)[C@H](CO)NC(=O)[C@@H](NC(=O)[C@](C)(Cc1ccccc1F)NC(=O)[C@@H](NC(=O)CNC(=O)[C@H](CCC(=O)O)NC(=O)C(C)(C)NC(=O)[C@@H](N)Cc1ccc(O)cc1)[C@@H](C)O)[C@@H](C)O)[C@@H](C)CC)C(=O)N[C@@H](C)C(=O)N[C@@H](CCC(N)=O)C(=O)NC(C)(C)C(=O)N[C@@H](CCC(=O)O)C(=O)N[C@@H](Cc1ccccc1)C(=O)N[C@H](C(=O)N[C@H](CCC(=O)O)C(=O)N[C@@](C)(Cc1ccc(O)cc1)C(=O)N[C@@H](CC(C)C)C(=O)N[C@H](C(=O)N[C@@H](CCCCNC(=O)COCCOCCNC(=O)COCCOCCNC(=O)CC[C@H](NC(=O)CCCCCCCCCCC)C(=O)O)C(=O)NCC(=O)NCC(=O)N1CCC[C@H]1C(=O)N[C@@H](CO)C(=O)N[C@@H](CO)C(=O)NCC(=O)N[C@@H](C)C(=O)N1CCC[C@H]1C(=O)N1CCC[C@H]1C(=O)N1CCC[C@H]1C(=O)N[C@@H](CO)C(N)=O)[C@@H](C)CC)[C@@H](C)CC)C(=O)O [Example 139]
Emax (hGLP-1R; [4]): 111%
EC50 (hGLP-1R; cAMP, incubated at 37° C., 0.1% bovine casein (no human serum albumin), read-out: hGLP-1R EC50, nM (SEM, n)): 0.141 nM
EC50 (hGCGR; [5]): > 9950 nM
Ki [3, 6]: 0.268 nM
EC50 (hGIPR; [7]): 0.0108 nM
Ki [2, 8]: 109 nM

CC[C@H](C)[C@H](NC(=O)[C@H](CC(C)C)NC(=O)[C@](C)(Cc1ccc(O)cc1)NC(=O)[C@H](CCCCNC(=O)COCCOCCNC(=O)COCCOCCNC(=O)CC[C@H](NC(=O)CC[C@H](NC(=O)CCCCCCCCCOc1ccc(C(=O)O)cc1)C(=O)O)C(=O)O)NC(=O)[C@@H](NC(=O)[C@H](Cc1ccccc1)NC(=O)[C@H](CCCN)NC(=O)C(C)(C)NC(=O)[C@H](CCC(N)=O)NC(=O)[C@H](C)NC(=O)[C@H](CCC(N)=O)NC(=O)[C@H](CCCN)NC(=O)[C@H](CC(=O)O)NC(=O)[C@H](CC(C)C)NC(=O)[C@](C)(CC(C)C)NC(=O)[C@@H](NC(=O)C(C)(C)NC(=O)[C@H](Cc1ccncc1)NC(=O)[C@H](CC(=O)O)NC(=O)[C@H](CO)NC(=O)[C@@H](NC(=O)[C@](C)(Cc1ccccc1F)NC(=O)[C@@H](NC(=O)CNC(=O)[C@H](CCC(=O)O)NC(=O)C(C)(C)NC(=O)[C@@H](N)Cc1ccc(O)cc1)[C@@H](C)O)[C@@H](C)O)[C@@H](C)CC)[C@@H](C)CC)C(=O)N[C@@H](CCCCNC(=O)COCCOCCNC(=O)COCCOCCNC(=O)CC[C@H](NC(=O)CC[C@H](NC(=O)CCCCCCCCCOc1ccc(C(=O)O)cc1)C(=O)O)C(=O)O)C(=O)NCC(=O)NCC(=O)N1CCC[C@H]1C(=O)N[C@@H](CO)C(=O)N[C@@H](CO)C(=O)NCC(=O)N[C@@H](C)C(=O)N1CCC[C@H]1C(=O)N1CCC[C@H]1C(=O)N1CCC[C@H]1C(=O)N[C@@H](CO)C(N)=O [Example 475]
Emax (hGLP-1R; HEK293, read-out: hGLP-1R Emax, % ± SEM, cAMP, 37° C., 0.1% bovine casein, percent of maximal response to GLP-1(7-36)NH2, arithmetic mean): 116%
EC50 (hGLP-1R; hGLP-1R EC50, nM (SEM, n), cAMP, 37° C., 0.1% bovine casein (no human serum albumin)): 0.143 nM
EC50 (hGCGR; hGCGR EC50, nM (SEM, n), cAMP, 37° C., 0.1% bovine casein (no human serum albumin), geometric mean): > 9950 nM
EC50 (hGCGR; hGCGR EC50, nM (SEM, n), cAMP, 37° C., 0.1% bovine casein and 1.0% human serum albumin, geometric mean (SEM, n)): > 9950 nM
Ki [3]: 0.189 nM
Emax (hGIPR; HEK293, read-out: hGIPR Emax, % ± SEM, cAMP, 37° C., 0.1% bovine casein and 1.0% human serum albumin, percent of maximal response to GIP(1-42)NH2): 84.6%
EC50 (hGIPR; hGIPR EC50, nM (SEM, n), cAMP, 37° C., 0.1% bovine casein (no human serum albumin), geometric mean): 0.012 nM
EC50 (hGIPR; hGIPR EC50, nM (SEM, n), cAMP, 37° C., 0.1% bovine casein and 1.0% human serum albumin, geometric mean (SEM, n)): 0.211 nM
Ki [2]: 139 nM

From US20230265151A1, “GIP/GLP1 CO-AGONIST COMPOUNDS” (priority 2020, published 2023)
